Experimental data from a melting point compilation (Tetko et al.; mined from patent text by program, amines drawn as free bases though some values may be those of a salt).

First: Cc1cc(C)c2c(-c3cccc(Cl)c3)cc(=O)n(C)c2n1
Second: Cc1cc(Cl)c2[nH]nc(-c3ccc(Cl)cc3)c2n1
The melting point of the first is lower: 161 to 162 °C for the first, 243 to 245 °C for the second.

First: CCOC(=O)c1cn2c(C)c(C)nc2c(O)c1CCC(=O)c1ccccc1
Second: CCOC(=O)c1cn(CC)c2nc(N3CCN(Cc4ccccc4)CC3)ncc2c1=O
The melting point of the first is higher: 172 to 174 °C for the first, 152 °C for the second.

First: Cc1ccccc1NC(=O)CN1CC2CCC(C1)N2S(=O)(=O)c1cccc2nonc12
Second: Cc1cc(C)nc(N(C(=O)NS(C)(=O)=O)c2ccccc2)n1
The melting point of the first is lower: 167 to 168 °C for the first, 186 to 192 °C for the second.

First: CN1CCCC1=NC(=O)Nc1cccc(Cl)c1
Second: C#Cc1cccc(NC(C)=O)c1
The melting point of the first is higher: 135 to 136 °C for the first, 94 to 96 °C for the second.

First: COc1c(CN)c2c(c3c1OC(C)(C)C3)C(c1ccccc1)=NC(C)(C)C2
Second: COc1cc2c(c3c1OC(C)(C)C3)C(c1ccccc1)=NC(COC(C)=O)C2 (centres undefined)
The melting point of the first is lower: 140 to 142 °C for the first, 168 to 169 °C for the second.

First: O=C(O)COc1c(Br)cc(C(=O)c2c(Cc3ccccc3)sc3ccccc23)cc1Br
Second: COC(=O)c1ccc(NC(=O)c2ccccc2-c2ccccc2)c(OC)c1
The melting point of the first is higher: 162 to 163 °C for the first, 115 to 117 °C for the second.

First: CN(C)C(=O)C(C)(C)c1cn2nc(Cl)ccc2n1
Second: CC(=Cc1ccc(N(C)C)cc1C)[N+](=O)[O-]
The melting point of the first is higher: 149 to 151 °C for the first, 75 to 76 °C for the second.

Compared with `Cn1ncc(Cl)c(NCCCCl)c1=O`, `OCCc1ccc(OCCCCl)cc1` is higher in melting point: 42 to 46 °C for the first, 49 to 50 °C for the second.

First: O=C(c1ccc(-c2ccc(Cl)cc2)cc1)N1CCCc2cc(C=CCN3CCCCC3)ccc21
Second: Cc1ccc(-c2ccccc2C(=O)Nc2ccc(C(=O)N3CCC(=O)N(CC(=O)N4CCN(C)CC4)c4ccccc43)cc2)cc1
The melting point of the first is lower: 141 to 143 °C for the first, 161 to 163 °C for the second.

First: Cc1ccc(C(=O)O)cc1NC(=O)C(CS)Cc1ccccc1 (centres undefined)
Second: COC(=O)C(=O)c1cn(CCO)c2ccc(OCc3ccccc3)cc12
The melting point of the first is higher: 192 to 194 °C for the first, 148 to 150 °C for the second.

First: Cc1nn(C)c(Cl)c1S(=O)(=O)N1CCC2(CC1)CSC1=C(O2)c2ccccc2C(=O)C1=O
Second: C[C@H]1C[C@@](O)(c2csc(S(=O)(=O)c3ccc4c(c3)CCC(=O)N4C)c2)CCO1
The melting point of the first is higher: 247 to 249 °C for the first, 64 to 66 °C for the second.

Compared with `O=[N+]([O-])c1cc(Br)ccc1-c1ccccc1F`, `COc1cc([N+](=O)[O-])c(C(=O)c2ccccc2)cc1O` is higher in melting point: 42 to 45 °C for the first, 154 to 156 °C for the second.

First: CCCCNC(N)=Nc1nc(-c2cccc(CNC(C)=O)n2)cs1
Second: CCCCc1nnc(-c2ccco2)n1Cc1ccc([N+](=O)[O-])cc1
The melting point of the first is higher: 145 to 146 °C for the first, 91 to 92.5 °C for the second.

First: Cc1nc(-c2ccc(C(F)(F)F)cc2)oc1Sc1ccc(Cc2nn[nH]n2)cc1
Second: Cc1ccc(S(=O)(=O)OCC2Cc3cccc(-c4ccccc4C(F)(F)F)c3O2)cc1 (centres undefined)
The melting point of the first is higher: 214 °C for the first, 116 to 118 °C for the second.

Compared with `COc1ccccc1CNC(=O)c1ccc2nc(N[C@@H]3CCc4ccccc43)ccc2c1`, `CC(C)(C)c1ccc(/C=N/OCCCOc2ccc(C(=O)O)c(NC(=O)c3ccc4ccccc4c3)c2)cc1` is lower in melting point: 168 °C for the first, 156 to 158 °C for the second.

Compared with `COc1cc2c(cc1O)C(OC)CN(Cc1ccccc1OC)C2` (centres undefined), `COc1ccc(-c2nc(CN(C)c3ccccc3)nc3cc(OC)c(OC)cc23)cc1OC` is higher in melting point: 45 to 47 °C for the first, 141 to 143 °C for the second.

First: O=c1[nH]c2ccc3c(c2[nH]1)OC(CNCCCCc1ccccc1)CO3 (centres undefined)
Second: Cc1c(CCc2ccccc2)c(=O)oc2cc(O)cc(O)c12
The melting point of the first is lower: 224 to 226 °C for the first, 248 to 252 °C for the second.

Compared with `COC(=O)C1=C(C)NC(C)=C(C(=O)OC)C1c1cccc(NC(=O)C(F)(F)F)c1`, `COC(=O)C1=C(C)Nc2ccccc2SC1c1cccc([N+](=O)[O-])c1` (centres undefined) is lower in melting point: 231 to 232 °C for the first, 140 to 142 °C for the second.

First: Cc1oc(-c2ccccc2)nc1COc1cc(COc2ncccc2C#N)on1
Second: COc1cc(COc2nn(-c3ccccc3)cc2CCO)ccc1OCc1nc(-c2ccco2)oc1C
The melting point of the first is higher: 139 to 140 °C for the first, 123 to 124 °C for the second.

Compared with `NC(=O)COC(=O)c1c(F)cccc1F`, `CNC(=O)COc1cc(C)ccc1O` is higher in melting point: 108 to 110 °C for the first, 163 to 165 °C for the second.

Compared with `CC1CC(=O)NN=C1c1ccc(N)c(N)c1` (centres undefined), `CCCOc1ccc2c(c1)NC(=O)CO2` is lower in melting point: 195 to 196 °C for the first, 102 to 104 °C for the second.

First: Cc1cc(OCCCCCCCCNC(=O)c2cc(-c3cccc(Cl)c3)c(OCC(=O)O)c(-c3cccc(Cl)c3)c2)ccc1F
Second: Cc1cccc(-c2n[nH]cc2-c2ccc(F)c(-c3ccc4c(c3)CCS4(=O)=O)c2)n1
The melting point of the first is higher: 138 to 140 °C for the first, 107 to 109 °C for the second.

Compared with `COC(=O)c1cccc(CC2COc3ccc(OCc4nc5cc(F)ccc5s4)cc3C2O)c1` (centres undefined), `O=C1CC(c2ccc(OCc3ccccc3)cc2)CN1O` (centres undefined) is lower in melting point: 171 to 173 °C for the first, 150 to 155 °C for the second.

First: CCCN(CCC)[C@@H]1CCc2ccc(C(N)=O)cc2C1
Second: O=C(O)c1ccc(OCC2CCCCC2)c([N+](=O)[O-])c1
The melting point of the first is lower: 132 °C for the first, 200 to 202 °C for the second.

Compared with `COc1cc(OC)c2c(=O)[nH]c(-c3ccc(OCCN4CCCC4)c(-c4ccc(S(C)=O)cc4)n3)nc2c1` (centres undefined), `Cc1ccc(-c2cc3c(n2-c2ccc(O)c(C(=O)O)c2)CCCC3)cc1` is higher in melting point: 103 to 105 °C for the first, 212 to 214 °C for the second.

Compared with `COc1ccc(NC(=O)c2c(C)nc3ccccc3c2O)cc1`, `COC(=O)c1nc(C)c2[nH]c3ccccc3c2c1I` is higher in melting point: 222 °C for the first, 280 to 286 °C for the second.

First: O=C(c1ccc(F)cc1)n1c2c(c3ccccc31)CC(C(=O)O)(C(=O)O)CC2
Second: O=C1CCn2c1c(Sc1ccccc1)c1ccccc12
The melting point of the first is higher: 190 to 195 °C for the first, 179 to 181 °C for the second.

Compared with `Nc1ccsc1-c1nc(C2CC2)no1`, `CC(=O)NCC1CN(c2ccc(N3CCN(c4nnc(C5CC5)s4)CC3)c(F)c2)C(=O)O1` (centres undefined) is higher in melting point: 51 to 54 °C for the first, 217 to 218 °C for the second.

First: O=C(NCC1CC2C=CC1C2)NS(=O)(=O)C=Cc1ccccc1 (centres undefined)
Second: NC(=O)c1cn(C(CO)c2ccccc2)cn1 (centres undefined)
The melting point of the first is higher: 161 to 164 °C for the first, 147 to 149 °C for the second.

First: CCOC(=O)c1[nH]c(=O)c(CC(C)C)[n+]([O-])c1O
Second: COc1cc(OC)c(C(C)=O)c(O)c1CCC(C)C
The melting point of the first is higher: 153 to 155 °C for the first, 100 °C for the second.

First: COc1cccc2c1[nH]c1c(C(=O)O)cccc12
Second: COc1cccc(C(=O)NN2C(c3ccccc3)=NOC2(C)C)c1C
The melting point of the first is higher: 252 °C for the first, 141 to 142 °C for the second.

First: Cc1ccc(CC(N)=NO)cc1C
Second: Cc1cc(O)cc(C)c1N=Cc1ccc(O)cc1O
The melting point of the first is lower: 59 to 60 °C for the first, 193 to 197 °C for the second.

First: CCOCc1nc2c(N)nc3ccccc3c2n1CC1(OCCS(C)(=O)=O)CCN(C(C)=O)CC1
Second: CCOP(=O)(OCC)SCc1ccc(-c2nc(SC)c3cc(Br)ccc3n2)cc1
The melting point of the first is higher: 208 to 210 °C for the first, 126 to 127 °C for the second.

First: CCN1C[C@@H](C(=O)O)N(C(=O)[C@H](C)CSC(=O)c2ccccc2)C1=O
Second: CC(C)(C)C(NC(=O)OCc1ccccc1)C(=O)O (centres undefined)
The melting point of the first is higher: 139 to 141 °C for the first, 96 to 99 °C for the second.

Compared with `CCCNC(=S)NS(=O)(=O)c1cc2c(cc1OC)OCCC2CNC(=O)c1cc(Cl)ccc1OC` (centres undefined), `CCNc1cc(OC)ccc1S(=O)(=O)N1C(=O)C(N)(c2ccccc2Cl)c2cc(Cl)ccc21` (centres undefined) is higher in melting point: 183 to 184 °C for the first, 192 to 196 °C for the second.

First: CCSc1cn(C)cc(-c2cccc(C(F)(F)F)c2)c1=S
Second: CCC(c1ccc(-c2ccc(Cl)cc2)cc1)N1CCNCC1 (centres undefined)
The melting point of the first is higher: 136 to 138 °C for the first, 95 to 97 °C for the second.

Compared with `N#CCc1cc(Br)c(C(=O)c2ccc(Cl)cc2)[nH]1`, `CN1C(=O)N2[C@H](c3cccc(O)c3)c3[nH]c4ccc(Br)cc4c3C[C@@]2(C)C1=O` (racemic) is higher in melting point: 185 to 186 °C for the first, 248 to 251 °C for the second.

First: CC(C)(c1cc(Cl)cc([N+](=O)[O-])c1O)c1cc(Cl)cc([N+](=O)[O-])c1O
Second: O=c1[nH]c2cc([N+](=O)[O-])c(Sc3cccc4cnccc34)cc2o1
The melting point of the first is lower: 188 °C for the first, 255 to 260 °C for the second.

First: Cc1c(C(=O)O)nc2c(=O)[nH]c3cc(F)ccc3n12
Second: Cc1cc(-c2ccc(S(C)(=O)=O)cc2)n(-c2ccc(F)cc2)c1Cl
The melting point of the first is higher: greater than 250 °C for the first, 151 to 154 °C for the second.

First: OC(Cc1ccc(Cl)cc1Cl)(Cn1ccnc1)c1ccc(C2CCCCC2)cc1 (centres undefined)
Second: CC(=O)COc1ccc(C2CCCCC2)cc1
The melting point of the first is higher: 142 °C for the first, 58 °C for the second.

First: Cc1cncn1CC(O)c1ccccc1 (centres undefined)
Second: Cc1c(-c2ccccc2)noc1-c1ccccc1C(=O)O
The melting point of the first is higher: 193 °C for the first, 159 to 161 °C for the second.

First: O=C(NCc1ccc2c(c1)-c1[nH]nc(-c3ccsc3)c1C2)c1cccnc1
Second: CCOc1nc(-c2cc(NC(=O)c3ccc(C)c(F)c3)ccc2C)c2c(n1)N(c1c(F)cccc1F)C(=O)NC2
The melting point of the first is higher: 286 °C for the first, 257 to 262 °C for the second.

First: O=C(O)CCC1=C(n2nc(-c3c(-c4ccccc4)nn4ccccc34)ccc2=O)CCCC1
Second: COc1cc(C=CC=C2SC(=O)NC2=O)ccc1OCc1csc(-c2ccccc2)n1
The melting point of the first is lower: 184 to 185 °C for the first, 248 to 249 °C for the second.

First: O=C(O)c1cn(C2CC2)c2c(F)c(N3CCC(n4ncnn4)C3)c(F)cc2c1=O (centres undefined)
Second: Cn1ncc(C(=O)N2CCOCC2)c1C(=O)Nc1ccn2nc(-c3ccnc(F)c3)nc2c1
The melting point of the first is lower: 192 to 199 °C for the first, greater than 280 °C for the second.

First: C=CCOc1c(I)cc(C(=O)CCC(=O)c2cc(OC)c(OC)c(OC)c2)cc1OC
Second: COc1cc(OC)c(C(=O)CC(O)C(=O)O)cc1OC (centres undefined)
The melting point of the first is lower: 113 to 114 °C for the first, 145 to 147 °C for the second.

First: Cc1cc(N=CN(C)C)nc(-c2ccc([N+](=O)[O-])o2)n1
Second: COC(=O)c1cc(=O)c2ccc(S)cc2o1
The melting point of the first is higher: 176 to 178 °C for the first, 147 to 150 °C for the second.

Compared with `CCN(CC)C(=O)n1cnc(S(=O)(=O)c2cc(F)c(C#N)cc2F)n1`, `[N-]=[N+]=NCCc1cccc2[nH]cc(S(=O)(=O)c3cccc(F)c3)c12` is higher in melting point: 98 °C for the first, 136 to 138 °C for the second.

Compared with `O=C(O)c1ccc(OC(F)F)c(OC2CCCC2)c1`, `CCCCCCSc1[nH]c2cccc3c2c1CC1C3C=C(C)CN1C` (centres undefined) is higher in melting point: 126 to 128 °C for the first, 199 to 201 °C for the second.

Compared with `NNc1nc(C(F)(F)F)c(Cl)s1`, `CCOC(=O)NC(=S)Nc1nnc(-c2cc(C(C)(C)C)c(O)c(C(C)(C)C)c2)s1` is higher in melting point: 136 to 137 °C for the first, greater than 250 °C for the second.

`COc1nc(C)nc(NC(=O)NS(=O)(=O)c2c(C3=NOCCO3)csc2C)n1` showed a melting point of 200 °C.
